US12174198B2, “Methods of characterizing condensate-associated characteristics of compounds and uses thereof” (Dewpoint Therapeutics, Inc., priority 2019, dated 2024)

Key:
Assay type in all cases: physicochemical
[1] = system: FUS-SNAP condensates versus PGL-3 condensates; assay: Condensate preference: ratio of FUS-SNAP I-in:I-out to PGL-3 I-in:I-out; conditions: average FUS-SNAP I-in:I-out divided by average PGL-3 I-in:I-out
Description: (§1) The ratios of the average intensity measured in the target condensates and outside of the target condensates were calculated by dividing I-in by I-out, although dividing I-out by I-in could also have been used. The I-in:I-out ratios determined from the two different days of experiments were then averaged. The average I-in:I-out ratios for FUS-SNAP condensates are shown in FIG. 3 and the average I-in:I-out ratios for PGL-3 condensates are shown in FIG. 4. The standard deviation between the two experiments is represented by the error bars in FIG. 3 and FIG. 4.

PGL-3 condensates = biological target: T1, PGL-3 condensates (Caenorhabditis elegans, UniProt G5EBV6); assay: Fluorescence imaging of dye partitioning in PGL-3 condensates (I-in, I-out); conditions: for Intensity Inside with Dye Average / Intensity Inside with Dye 1 / Intensity Inside with Dye 2 / Intensity Inside with Dye 3 / Intensity Inside Dye-No Dye: inside PGL-3 condensate; for Intensity Inside with Dye Average / Intensity Inside with Dye 1 / Intensity Inside with Dye 2 / Intensity Inside with Dye 3 / Intensity Outside with Dye Average / Intensity Outside with Dye 1 / Intensity Outside with Dye 2 / Intensity Outside with Dye 3: 5 μM protein; for Intensity Inside with Dye Average / Intensity Outside with Dye Average: average of three images; for Intensity Inside with Dye Average / Intensity Inside with Dye 1 / Intensity Inside with Dye 2 / Intensity Inside with Dye 3 / Intensity Inside Dye-No Dye / Intensity Outside with Dye Average / Intensity Outside with Dye 1 / Intensity Outside with Dye 2 / Intensity Outside with Dye 3 / Intensity Outside (Dye-No Dye): one day of experiments; for Intensity Inside with Dye 1 / Intensity Outside with Dye 1: image 1; for Intensity Inside with Dye 2 / Intensity Outside with Dye 2: image 2; for Intensity Inside with Dye 3 / Intensity Outside with Dye 3: image 3; for Intensity Inside Dye-No Dye / Intensity Outside (Dye-No Dye): background corrected; for Intensity Outside with Dye Average / Intensity Outside with Dye 1 / Intensity Outside with Dye 2 / Intensity Outside with Dye 3 / Intensity Outside (Dye-No Dye): outside PGL-3 condensate
T1 sequence (G5EBV6 1-693): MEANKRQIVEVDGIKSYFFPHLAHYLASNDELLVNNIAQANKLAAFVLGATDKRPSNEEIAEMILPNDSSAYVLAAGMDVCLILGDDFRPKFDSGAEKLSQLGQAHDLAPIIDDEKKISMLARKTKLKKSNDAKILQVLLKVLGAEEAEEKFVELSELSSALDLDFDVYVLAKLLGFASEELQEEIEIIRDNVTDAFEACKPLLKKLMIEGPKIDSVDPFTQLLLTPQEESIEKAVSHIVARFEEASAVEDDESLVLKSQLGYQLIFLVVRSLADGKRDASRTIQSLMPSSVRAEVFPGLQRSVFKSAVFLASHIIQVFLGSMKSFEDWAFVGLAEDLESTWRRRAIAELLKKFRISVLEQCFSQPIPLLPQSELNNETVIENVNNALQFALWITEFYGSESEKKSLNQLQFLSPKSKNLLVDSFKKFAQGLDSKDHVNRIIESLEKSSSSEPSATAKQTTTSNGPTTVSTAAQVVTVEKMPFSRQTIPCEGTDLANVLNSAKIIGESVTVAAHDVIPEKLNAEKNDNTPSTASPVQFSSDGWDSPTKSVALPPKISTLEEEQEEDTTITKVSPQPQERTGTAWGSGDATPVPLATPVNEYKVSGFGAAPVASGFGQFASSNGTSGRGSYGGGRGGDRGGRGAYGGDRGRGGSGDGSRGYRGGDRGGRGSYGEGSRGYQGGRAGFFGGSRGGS
Description: (§2) All dye-stocks were stored as 1 mM solutions in 100% DMSO. The dyes were dissolved in dilution buffer (DB: 14.7 mM Tris, pH 7.25, 1 mM DTT) to yield 11.765 μM dye in 1.1765 DMSO. 17 μl of dye was distributed in a 384 well non-binding plate (Greiner).
(§3) Either SNAP-tagged FUS protein or tag-free PGL-3 protein was thawed at room temperature for at least 10 min, and the buffer was exchanged to partitioning buffer (PB: 50 mM Tris pH 7.25, 500 mM KCl, 5% Glycerol, and 1 mM DTT). The protein was then diluted to 33.3 μM in PB. 3 μl of protein solution were added to the 384 well plate to initiate phase separation, yielding 20 μl of 5 μM protein and 10 μM dye in 75 mM KCl, 0.75% Glycerol, 20 mM Tris, 1 mM DTT, and 1% DMSO or for no dye control reactions, 20 μl of 5 μM protein in 75 mM KCl, 0.75% Glycerol, 20 mM Tris, 1 mM DTT.
(§4) A spinning disk confocal microscope was used to acquire images of the samples. A 60×oil high-NA objective lens was used to capture the condensate droplets. The laser power was set to 20% and the exposure times were adjusted to the fluorescence emission intensity specific for each dye. Exposure times ranged from 1-1000 ms. Appropriate filter settings were used, matching the excitation and emission spectra of the respective dyes. Three images per well were taken. The background signal of protein droplets in the absence of dye was recorded for all applied imaging conditions.
(§5) Fluorescence intensity was measured inside one exemplary target condensate (Intensity inside, I-in) per image and in a region next to the exemplary target condensate (Intensity outside, I-out) by hand using the image analysis software Fiji. An example depicting the regions measured is shown FIG. 2A. Three I-in and three I-out values were measured in total for each dye in each experiment and were averaged. The measured I-in and I-out values for FUS-SNAP condensates on one day of experiments are shown in Table 2 and Table 3, respectively. The measured I-in and I-out values for PGL-3 condensates on one day of experiments are shown in Table 4 and Table 5, respectively. All values were background corrected, based on the background images (no dye controls) taken with the same microscope conditions.
as §1

FUS-SNAP condensates = biological target: T2, FUS-SNAP condensates (Homo sapiens, UniProt P35637); assay: Fluorescence imaging of dye partitioning in FUS-SNAP condensates (I-in, I-out); conditions: for Ratio of intensity inside:outside FUS-SNAP Condensates Day 1 / Ratio of intensity inside:outside FUS-SNAP Condensates Day 2 / Ratio of intensity inside:outside FUS-SNAP Condensates Average: I-in:I-out; for Ratio of intensity inside:outside FUS-SNAP Condensates Day 1 / Ratio of intensity inside:outside FUS-SNAP Condensates Day 2 / Ratio of intensity inside:outside FUS-SNAP Condensates Average / Intensity Inside with Dye Average / Intensity Inside with Dye 1 / Intensity Inside with Dye 2 / Intensity Inside with Dye 3 / Intensity Outside with Dye Average / Intensity Outside with Dye 1 / Intensity Outside with Dye 2 / Intensity Outside with Dye 3: 10 μM dye; for Ratio of intensity inside:outside FUS-SNAP Condensates Average: average of two days; for Intensity Inside with Dye Average / Intensity Inside with Dye 1 / Intensity Inside with Dye 2 / Intensity Inside with Dye 3 / Intensity Inside Dye-No Dye: inside FUS-SNAP condensate; for Intensity Inside with Dye Average / Intensity Inside with Dye 1 / Intensity Inside with Dye 2 / Intensity Inside with Dye 3 / Intensity Outside with Dye Average / Intensity Outside with Dye 1 / Intensity Outside with Dye 2 / Intensity Outside with Dye 3: 5 μM protein; for Intensity Inside with Dye Average / Intensity Outside with Dye Average: average of three images; for Intensity Inside with Dye Average / Intensity Inside with Dye 1 / Intensity Inside with Dye 2 / Intensity Inside with Dye 3 / Intensity Inside Dye-No Dye / Intensity Outside with Dye Average / Intensity Outside with Dye 1 / Intensity Outside with Dye 2 / Intensity Outside with Dye 3 / Intensity Outside (Dye-No Dye): one day of experiments; for Intensity Inside with Dye 1 / Intensity Outside with Dye 1: image 1; for Intensity Inside with Dye 2 / Intensity Outside with Dye 2: image 2; for Intensity Inside with Dye 3 / Intensity Outside with Dye 3: image 3; for Intensity Inside Dye-No Dye / Intensity Outside (Dye-No Dye): background corrected; for Intensity Outside with Dye Average / Intensity Outside with Dye 1 / Intensity Outside with Dye 2 / Intensity Outside with Dye 3 / Intensity Outside (Dye-No Dye): outside FUS-SNAP condensate
T2 sequence (P35637 1-526): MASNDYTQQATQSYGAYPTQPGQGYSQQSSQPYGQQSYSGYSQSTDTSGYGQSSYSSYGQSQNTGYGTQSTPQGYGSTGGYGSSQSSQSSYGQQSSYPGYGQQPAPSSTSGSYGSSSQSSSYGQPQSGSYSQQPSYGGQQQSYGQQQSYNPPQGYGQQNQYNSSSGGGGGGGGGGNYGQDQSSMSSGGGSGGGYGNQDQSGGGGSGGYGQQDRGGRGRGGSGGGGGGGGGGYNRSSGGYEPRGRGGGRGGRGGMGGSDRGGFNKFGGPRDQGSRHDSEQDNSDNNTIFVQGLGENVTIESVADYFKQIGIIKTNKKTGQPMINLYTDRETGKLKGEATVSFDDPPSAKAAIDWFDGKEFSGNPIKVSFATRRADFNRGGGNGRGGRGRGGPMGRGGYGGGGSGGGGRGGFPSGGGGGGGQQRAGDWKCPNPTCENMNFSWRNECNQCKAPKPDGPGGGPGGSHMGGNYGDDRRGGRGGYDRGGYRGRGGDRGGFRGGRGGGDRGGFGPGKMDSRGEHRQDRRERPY
Description: as §2, §3, §4, §5, §1

Ratio of intensity inside:outside PGL-3 Condensates Day 2 (PGL-3 condensates; I-in:I-out, 10 μM dye)	Intensity Inside with Dye Average (PGL-3 condensates; 10 μM dye)	Intensity Inside with Dye 1 (PGL-3 condensates; 10 μM dye)	Intensity Inside with Dye 2 (PGL-3 condensates; 10 μM dye)	Intensity Inside with Dye 3 (PGL-3 condensates; 10 μM dye)	Intensity Inside Dye-No Dye (PGL-3 condensates)	Intensity Outside with Dye Average (PGL-3 condensates; 10 μM dye)	Intensity Outside with Dye 1 (PGL-3 condensates; 10 μM dye)	Intensity Outside with Dye 2 (PGL-3 condensates; 10 μM dye)	Intensity Outside with Dye 3 (PGL-3 condensates; 10 μM dye)	Intensity Outside (Dye-No Dye) (PGL-3 condensates)	Ratio of intensity inside:outside FUS-SNAP Condensates Day 1 (FUS-SNAP condensates)	Intensity Inside with Dye Average (FUS-SNAP condensates)	Intensity Inside with Dye 1 (FUS-SNAP condensates)	Intensity Inside with Dye 2 (FUS-SNAP condensates)	Intensity Inside with Dye 3 (FUS-SNAP condensates)	Intensity Inside Dye-No Dye (FUS-SNAP condensates)	Intensity Outside with Dye Average (FUS-SNAP condensates)	Intensity Outside with Dye 1 (FUS-SNAP condensates)	Intensity Outside with Dye 2 (FUS-SNAP condensates)	Structure (SMILES)	other results
1.1	269.8	273.9	267.0	268.3	149.0	262.4	263.1	258.0	266.0	141.9	1.4	280.9	278.2	278.1	286.5	160.9	232.0	235.7	228.5	O=c1cc(C(F)(F)F)c2ccc(O)cc2o1 [Dye 2, 7-Hydroxy-4-(trifluoromethyl)-coumarin]	Ratio of FUS-SNAP:PGL-3 [1]: 1.2; Ratio of intensity inside:outside PGL-3 Condensates Day 1 (PGL-3 condensates; I-in:I-out, 10 μM dye): 1.0; Ratio of intensity inside:outside PGL-3 Condensates Average (PGL-3 condensates; I-in:I-out, average of two days, 10 μM dye): 1.1; Ratio of intensity inside:outside FUS-SNAP Condensates Day 2 (FUS-SNAP condensates): 1.2; Ratio of intensity inside:outside FUS-SNAP Condensates Average (FUS-SNAP condensates): 1.3; Intensity Outside with Dye 3 (FUS-SNAP condensates): 232.0; Intensity Outside (Dye-No Dye) (FUS-SNAP condensates): 112.0
−0.4	828.6	824.1	801.2	860.4	231.3	269.2	269.6	264.9	273.2	106.3	1.9	6034.1	5836.4	6036.1	6229.9	1821.5	1485.0	1487.5	1414.8	CC(=O)Oc1ccc2c(c1)Oc1cc(OC(C)=O)ccc1C21OC(=O)c2ccccc21 [Dye 9, Fluorescein diacetate]	Ratio of intensity inside:outside PGL-3 Condensates Day 1 (PGL-3 condensates; I-in:I-out, 10 μM dye): 2.2; Ratio of intensity inside:outside FUS-SNAP Condensates Day 2 (FUS-SNAP condensates): 1.5; Ratio of intensity inside:outside FUS-SNAP Condensates Average (FUS-SNAP condensates): 1.7; Intensity Outside with Dye 3 (FUS-SNAP condensates): 1552.6; Intensity Outside (Dye-No Dye) (FUS-SNAP condensates): 934.8
3.3	6487.9	6831.9	6829.0	5802.8	1228.1	1263.8	1289.1	1266.2	1236.3	555.7	70.8	3480.0	3084.2	3756.7	3599.3	−732.6	539.8	559.0	527.6	CC/N=c1/cc2oc3cc(NCC)c(C)cc3c(-c3ccccc3C(=O)NCCOCCOCCN)c-2cc1C.O=C(O)C(F)(F)F [Dye 15, N-(8-Amino-3,6-dioxaoctyl)-rhodamine 6G-amide bis(trifluoroacetate)]	Intensity Outside with Dye 3 (FUS-SNAP condensates): 532.7; Intensity Outside (Dye-No Dye) (FUS-SNAP condensates): −10.3
1.9	690.1	689.4	656.9	723.9	92.8	206.4	208.4	203.2	207.7	43.5	−2.3	478.0	456.2	508.6	469.3	−19.5	148.6	150.1	142.8	O=C1OC2(c3ccc(O[C@@H]4O[C@H](CO)[C@H](O)[C@H](O)[C@H]4O)cc3Oc3cc(O[C@@H]4O[C@H](CO)[C@H](O)[C@H](O)[C@H]4O)ccc32)c2ccccc21 [Dye 12, Fluorescein di(β-D-galacto-pyranoside)]	Ratio of intensity inside:outside PGL-3 Condensates Day 1 (PGL-3 condensates; I-in:I-out, 10 μM dye): 2.1; Intensity Outside with Dye 3 (FUS-SNAP condensates): 152.9; Intensity Outside (Dye-No Dye) (FUS-SNAP condensates): 8.5
